Measurements reported in US6716635B2, “Method for identifying regulators of protein-advanced glycation end product (protein-AGE) formation” (University of Kentucky Research Foundation, priority 2000, dated 2004).

Experiments:
[1] = tested on: histone H1 (carbonylation); test: histone H1 carbonylation by reducing sugars, and interference by compounds; type: biochemical; details: for amount of carbonylation / carbonylation of histone H1, in words: 1 mM sugar, pH 7.4, 7 days
Protocol: Both protein cross-linking and protein carbonylation are well established indicia of protein glycation. See Schacter, et al., Free Radic Biol Med. 17:429-437 (1994), incorporated by reference. In brief, following the assays described infra, formation of protein cross-linking was measured on 12% SDS-PAGE, followed by Coomassie and silver staining. Cross-linking was detectable with a high degree of sensitivity, when the reaction between ADP-ribose and histone H1 was carried out at pH 9.0. […] In FIG. 8, the abbreviations “M,” “D”, and “O” represent “monomer,” “dimer” and “oligomer,” respectively. Silver staining is the preferred way of determining the cross linking. Protein carbonlyation was determined via Western blotting. Specifically, AGE-BSA, which had been prepared by incubating BSA with 1.66M glucose, at pH 7.4 for 90 days at 37° C., was recognized after being derivatized with 2.4 dinitrophenlyhydrazine (“DNP”), when tested with antibodies specific for protein bound, DNP epitopes.
A series of experiments were carried out to compare different reducing sugars as glycation agents. In addition to ADP-ribose, ADP-glucose, D-ribose and D-glucose were tested. Briefly, histone H1 was combined with 1 mM of each sugar, and the mixture was incubated at pH 7.4. After 7 days of incubation, reaction aliquots were analyzed on 12% SDS-PACE gels, with silver staining. Results are presented in FIGS. 19A and B. In each of these, lane 1 is a control, with no sugar added, while lanes 2-5 show results using D-glucose, D-ribose, ADP-glucose, and ADP-ribose, respectively. […] The amount of carbonylation caused by ADP-ribose (0.82 mole/mole histone H1), and D-ribose (0.06 mole/mole histone H1) correlated with immunostaining.
In order to determine if the carbonylation of histone H1 by ADP-ribose involved an oxidative pathway, several compounds, known to interfere with glycoxidation of proteins by D-glucose were tested to determine if they interfered with this action by ADP-ribose. The compounds tested included 5 mM DTPA under argon, 5 mM aminoguanidine, 5 mM N^α acetyl L-cysteine, 5 mM mannitol, and 100 units/ml catalase.

[2] = tested on: CF-3 (human dermal fibroblasts); test: protection against α-dicarbonyl toxicity in fibroblasts, cell count; type: cell-based; details: 72 hours
Protocol: (§1) Continuously cultured cell lines “He-Cat” (human epidermal keratinocytes), and “CF-3” (human dermal fibroblasts), were cultured under standard conditions, divided biweekly into DMEM containing 10% fetal bovine serum, and were kept in a humidified atmosphere containing 5% CO2 at 37° C. In order to divide the cells, 5% trypsin was used on the keratinocytes, and 1% trypsin was used on the fibroblasts.
(§2) Keratinocytes were seeded at 2×10^4 cells/well, and fibroblasts at 4×10^4 cells/well, using 6 well dishes. The cells were allowed to attach to the plate overnight. Either D-penicillamine or aminoguanidine (1 mM each) was added to the plates 15 minutes prior to addition of glyoxal or methylglyoxal. The α-dicarbonyl was left for 72 hours. Varying concentrations of the α-dicarbonyl were used. Cells were counted with a Coulter counter after 72 hours of stress. Cultures were also run where the glyoxal or methylglyoxal was used without the scavenger. L-alanine was used as a negative control as it was not expected to have protective effect.

[3] = tested on: He-Cat (human epidermal keratinocytes); test: protection against α-dicarbonyl toxicity in keratinocytes, cell count; type: cell-based; details: 72 hours
Protocol: as §1, §2

[4] = tested on: histone H1 (glycation by ADP-ribose); test: AGE-fluorescence screening of glycation inhibitors, histone H1 + ADP-ribose, 96 well microtiter plates; type: biochemical, calf; details: for AGE-fluorescence (day 5): 5 days incubation; for % inhibition: AGE-fluorescence day 5; for AGE-fluorescence (day 0): value (spread); for inhibition of AGE-fluorescence, in words: 1 to 10 mM, 5 days; for suppression of AGE-fluorescence, primary screen outcome: test compound 5 mM or limit of solubility, pH 7.4, 37° C.
Protocol: A 96-well, microtiter plate was used to carry out 48 reactions in duplicate. […] A second pair of wells contains the reactants and the known glycation inhibitor aminoguanidine, and functions as a positive control. Histone H1 is commercially available, and can be prepared following the procedures set out in Johns, et al., Biochem J. 92:55-59(1964), which is incorporated by reference herein.
The reaction system is 50 mM potassium phosphate buffer, at pH 7.4 to which 1.5 mg/ml histone H1 and 1.0 mM ADP-ribose were added. Reaction volume was 300 ul. AGE-fluorescence was measured over time, with incubation at 37° C., at 355 nm (ex) and 405 nm (em). Upon comparison to the control, a test compound was deemed potentially positive if AGE-fluorescence was suppressed.
The histone H1 (1.5 mg/ml) was combined with 1 mM ADP-ribose, in […] KH2PO4 buffer (pH 7.4, 37° C., 0.015% NaN3 added, to inhibit microbial growth). This reaction mixture was added, to 96 well microtiter plates. Test compounds were added to the reaction mixture, at concentrations ranging from 1 to 10 mM, in reaction volumes of 300 ul. Texts were run in duplicate.
Accumulated protein damage was determined by measuring AGE-fluorescence, at wavelengths (λex=370 nm; λ em=440 nm. The fluorescence is suppressed in the presence of compounds with inhibitory activity. Assays were read on a conventional microtiter plate, with a filter setting that approached the above conditions (λ ex: 355 nm, λ […]: 405 nm), which is in the range of the broad excitation/emission maxima of AGE compounds.
The fluorescence was measured at the beginning, and after 5 days of incubation.
The known glycation inhibitor aminoguanidine was used as a control.

[5] = compound 1 mM added 15 minutes prior to methylglyoxal

OC[C@@H](O)[C@@H](O)[C@H](O)[C@H](O)CO [mannitol]
interference with carbonylation of histone H1 by ADP-ribose ([1]; compound 5 mM): none of these interfered with the carbonylation

CC(=O)C=O [methylglyoxal]
concentration completely inhibitory to growth ([2]; no scavenger): 600 µM | concentration completely inhibitory to growth ([3]; no scavenger): 600 µM

catalase
interference with carbonylation of histone H1 by ADP-ribose ([1]; 100 units/ml): none of these interfered with the carbonylation

N[C@@H](CCC(=O)N[C@@H](CS)C(=O)NCC(=O)O)C(=O)O [GSH, glutathione]
AGE-fluorescence (day 5) ([4]; compound 1 mM): 19 (0.3) | % inhibition ([4]; compound 1 mM): 10% | AGE-fluorescence (day 0) ([4]; compound 1 mM): 1.3 (0.0) | AGE-fluorescence (day 5) ([4]; compound 5 mM): 17 (0.3) | % inhibition ([4]; compound 5 mM): 20% | AGE-fluorescence (day 0) ([4]; compound 5 mM): 1.1 (0.3) | AGE-fluorescence (day 5) ([4]; compound 10 mM): 14 (0.5) | % inhibition ([4]; compound 10 mM): 35% | AGE-fluorescence (day 0) ([4]; compound 10 mM): 1.1 (0.0)

N[C@@H](CS)C(=O)NCC(=O)O [L-Cys-Gly, NH2-L-cys-gly-COOH]
inhibition of AGE-fluorescence, in words [4]: increased AGE-fluorescence | AGE-fluorescence (day 5) ([4]; compound 1 mM): 17 | % inhibition ([4]; compound 1 mM): 20% | AGE-fluorescence (day 0) ([4]; compound 1 mM): 1.3 (0.3) | AGE-fluorescence (day 5) ([4]; compound 5 mM): 26 (0.4) | % inhibition ([4]; compound 5 mM): 0% | AGE-fluorescence (day 0) ([4]; compound 5 mM): 1.2 (0.2) | AGE-fluorescence (day 5) ([4]; compound 10 mM): 40 (0.0) | % inhibition ([4]; compound 10 mM): 0% | AGE-fluorescence (day 0) ([4]; compound 10 mM): 1.2 (0.1)

NC(CCS)C(=O)O (racemic) [D,L-Homocysteine]
inhibition of AGE-fluorescence, in words [4]: increased AGE-fluorescence | AGE-fluorescence (day 5) ([4]; compound 1 mM): 16 (1.1) | % inhibition ([4]; compound 1 mM): 26% | AGE-fluorescence (day 0) ([4]; compound 1 mM): 1.3 (0.0) | AGE-fluorescence (day 5) ([4]; compound 5 mM): 22 (0.1) | % inhibition ([4]; compound 5 mM): 0% | AGE-fluorescence (day 0) ([4]; compound 5 mM): 1.2 (0.2) | AGE-fluorescence (day 5) ([4]; compound 10 mM): 27 (1.7) | % inhibition ([4]; compound 10 mM): 0% | AGE-fluorescence (day 0) ([4]; compound 10 mM): 1.1 (0.1)

CC(=O)N[C@@H](CS)C(=O)O [NAC, N α-acetyl-L-cysteine, reference compound]
interference with carbonylation of histone H1 by ADP-ribose ([1]; compound 5 mM): none of these interfered with the carbonylation | AGE-fluorescence (day 5) ([4]; compound 1 mM): 11 (0.6) | % inhibition ([4]; compound 1 mM): 51% | AGE-fluorescence (day 0) ([4]; compound 1 mM): 1.2 (0.2) | AGE-fluorescence (day 5) ([4]; compound 5 mM): 10 (0.4) | % inhibition ([4]; compound 5 mM): 55% | AGE-fluorescence (day 0) ([4]; compound 5 mM): 1.0 (0.1) | AGE-fluorescence (day 5) ([4]; compound 10 mM): 9.4 (0.6) | % inhibition ([4]; compound 10 mM): 58% | % inhibition ([4]; compound 10 mM, listed as N α-acetyl-L-cysteine): 61% | AGE-fluorescence (day 0) ([4]; compound 10 mM): 1.1 (0.1)

COC(=O)[C@@H](N)CS [L-Cys-OMe, L-cysteine methylester]
AGE-fluorescence (day 5) ([4]; compound 1 mM): 15 (0.1) | % inhibition ([4]; compound 1 mM): 31% | AGE-fluorescence (day 0) ([4]; compound 1 mM): 1.2 (0.1) | AGE-fluorescence (day 5) ([4]; compound 5 mM): 12 (0.8) | % inhibition ([4]; compound 5 mM): 46% | AGE-fluorescence (day 0) ([4]; compound 5 mM): 1.3 (0.1) | AGE-fluorescence (day 5) ([4]; compound 10 mM): 9.0 (0.2) | % inhibition ([4]; compound 10 mM): 61% | AGE-fluorescence (day 0) ([4]; compound 10 mM): 1.2 (0.1) | suppression of AGE-fluorescence, primary screen outcome [4]: potential inhibitor

Nc1ncnc2c1ncn2[C@@H]1O[C@H](COP(=O)(O)OP(=O)(O)OC[C@H]2OC(O)[C@H](O)[C@@H]2O)[C@@H](O)[C@H]1O (stereo partly shown) [ADP-ribose]
amount of carbonylation [1]: 0.82 mole/mole histone H1 | carbonylation of histone H1, in words [1]: extensive carbonylation

N[C@@H](CS)C(=O)O [L-Cys, L-cysteine]
AGE-fluorescence (day 5) ([4]; compound 1 mM): 14 (0.3) | % inhibition ([4]; compound 1 mM): 36% | AGE-fluorescence (day 0) ([4]; compound 1 mM): 1.2 (0.1) | AGE-fluorescence (day 5) ([4]; compound 5 mM): 11 (0.2) | % inhibition ([4]; compound 5 mM): 50% | AGE-fluorescence (day 0) ([4]; compound 5 mM): 1.1 (0.1) | AGE-fluorescence (day 5) ([4]; compound 10 mM): 9.0 (0.2) | % inhibition ([4]; compound 10 mM): 61% | AGE-fluorescence (day 0) ([4]; compound 10 mM): 1.2 (0.1) | suppression of AGE-fluorescence, primary screen outcome [4]: potential inhibitor

NCCS [Cysteamine]
inhibition of AGE-fluorescence, in words [4]: somewhat better inhibition | AGE-fluorescence (day 5) ([4]; compound 1 mM): 10 (0.6) | % inhibition ([4]; compound 1 mM): 55% | AGE-fluorescence (day 0) ([4]; compound 1 mM): 1.0 (0.1) | AGE-fluorescence (day 5) ([4]; compound 5 mM): 9.0 (0.7) | % inhibition ([4]; compound 5 mM): 60% | AGE-fluorescence (day 0) ([4]; compound 5 mM): 1.1 (0.1) | AGE-fluorescence (day 5) ([4]; compound 10 mM): 6.0 (0.3) | % inhibition ([4]; compound 10 mM): 76% | AGE-fluorescence (day 0) ([4]; compound 10 mM): 1.2 (0.2)

C[C@H](N)C(=O)O [L-alanine]
protection against methylglyoxal induced growth inhibition [2, 5]: no protective effect | protection against methylglyoxal induced growth inhibition [3, 5]: no protective effect

C[N+](C)(C)[C@@H](Cc1c[nH]c(=S)[nH]1)C(=O)[O-] [L-Ergothioneine]
inhibition of AGE-fluorescence, in words [4]: somewhat better inhibition | AGE-fluorescence (day 5) ([4]; compound 1 mM): 13 (0.0) | % inhibition ([4]; compound 1 mM): 40% | AGE-fluorescence (day 0) ([4]; compound 1 mM): 1.0 (0.1) | AGE-fluorescence (day 5) ([4]; compound 5 mM): 9.3 (0.2) | % inhibition ([4]; compound 5 mM): 59% | AGE-fluorescence (day 0) ([4]; compound 5 mM): 1.2 (0.0) | AGE-fluorescence (day 5) ([4]; compound 10 mM): 7.4 (0.1) | % inhibition ([4]; compound 10 mM): 69% | AGE-fluorescence (day 0) ([4]; compound 10 mM): 1.2 (0.1)

O=C(O)CN(CCN(CC(=O)O)CC(=O)O)CCN(CC(=O)O)CC(=O)O [DTPA]
interference with carbonylation of histone H1 by ADP-ribose ([1]; 5 mM under argon): none of these interfered with the carbonylation

O=C1CC(=O)NC(=S)N1 [2-Thiobarbituric acid]
AGE-fluorescence (day 5) ([4]; compound 1 mM): 12 (0.4) | % inhibition ([4]; compound 1 mM): 45% | AGE-fluorescence (day 0) ([4]; compound 1 mM): 1.1 (0.1) | AGE-fluorescence (day 5) ([4]; compound 5 mM): 5.5 (0.4) | % inhibition ([4]; compound 5 mM): 78% | AGE-fluorescence (day 0) ([4]; compound 5 mM): 1.2 (0.1) | AGE-fluorescence (day 5) ([4]; compound 10 mM): 2.3 (0.0) | % inhibition ([4]; compound 10 mM): 95% | AGE-fluorescence (day 0) ([4]; compound 10 mM): 1.3 (0.1)

NCCC(=O)O [beta-alanine]
suppression of AGE-fluorescence, primary screen outcome [4]: true negatives

O=C[C@H](O)[C@H](O)[C@H](O)CO [D-ribose]
amount of carbonylation [1]: 0.06 mole/mole histone H1 | carbonylation of histone H1, in words [1]: a lesser amount

Nc1ncnc2c1ncn2[C@@H]1O[C@H](COP(=O)(O)OP(=O)(O)O[C@H]2O[C@H](CO)[C@@H](O)[C@H](O)[C@H]2O)[C@@H](O)[C@H]1O [ADP-glucose]
carbonylation of histone H1, in words [1]: Neither D-glucose nor ADP-glucose caused significant carbonylation

O=C[C@H](O)[C@@H](O)[C@H](O)[C@H](O)CO [D-glucose]
carbonylation of histone H1, in words [1]: Neither D-glucose nor ADP-glucose caused significant carbonylation
